Patent publication US20200030278A1, “PHARMACEUTICAL COMPOSITIONS OF METAP-2 INHIBITORS” (Zafgen, Inc., priority 2017, published 2020)
Values after ≈ are worked out from the molar mass of the structure shown. Where two headings read alike, the source gives them in different places.

What was measured:
[1] = Protein binding in mouse plasma (dialysis); format: in vitro ADME; details: read-out: % Bound (Mean) (converted)
[2] = Pharmacokinetics after intravenous administration in dogs; details: in vivo, Dog, IV Bolus, 0.142 mg/kg
Protocol: (§1) Animal experiments were performed in accordance with the Guide for the Care and Use of Laboratory Animals as adopted and promulgated by the U.S. National Institutes of Health or local equivalent and were approved by the Institution's Animal Care and Use Committee or local equivalent. Unless described otherwise, animals (mouse, rat, and dog studies) were maintained under standard conditions (12-hour light/dark cycle and approximately 21±4° C. and 55±15% relative humidity), and food (Rodent pellet chow [Research Diets, Brunswick N.J., or similar] or canine pellet [Certified Dog Diet 2021C, Harlan Teklad Diets, Madison, Wis.] or canned [i.e., Cesar® Mars Petcare, Victoria, Australia]) and water were available ad libitum. Unless described otherwise, drug formulations were administered s.c. daily (efficacy studies) or every 3 days (Q3D; safety studies).

[3] = Pharmacokinetic study in dogs, single s.c. injection (Example 3); details: both, beagle, dog, plasma, sc, 0.6 mg/kg
Protocol: Male and female beagle dogs of 9 to 11 months of age for PK characterization were individually housed at the testing facility Approximately 325 g of pelleted food was provided daily. […] Animals were observed twice daily for signs of ill health, morbidity, mortality, injury, and viability, and detailed clinical observations were conducted daily (including urine/fecal examination and hands-on examination). Food was weighed daily, and body weights were recorded at least weekly.
Samples were collected in tubes containing lithium heparin and processed for plasma by centrifugation (10 minutes at 3000 rpm). Supernatant was removed and stored frozen (−70° C.) until processed (BASi, West Lafayette, Ind.). Plasma drug concentration data were used to calculate PK parameters for individual concentration data using noncompartmental PK methods in Watson™ version 7.3.0.01 (Thermo Fisher Scientific, Inc., Waltham, Mass.).

Solubility (pH 7) = format: physicochemical; details: pH 7, aqueous buffer
[4] = Pharmacokinetics after subcutaneous administration in humans; format: in vivo, Human; details: Human, SC, 2 mg
Excerpt: (§2) Assessment of differences in pharmacokinetics following subcutaneous administration reflect both differences in the pharmacokinetic properties of the compounds and differences in pharmaceutical factors that affect absorption of the formulations from the injection sites.

[5] = pKa (physicochemical properties)
[6] = Protein binding in dog plasma (dialysis); format: in vitro ADME; details: Dog Plasma, read-out: % Bound (Mean) (converted)
[7] = Duration of plasma exposure after subcutaneous dosing, summary over species; format: in vivo, rat, dog, rabbit, human
[8] = Toxicology study in the rat, s.c. Q3D for 28 days; format: in vivo, Sprague Dawley rats; details: for NOAEL at 28 days / Cmax / AUC(0-t): Sprague Dawley, rat, in vivo, sc; for NOAEL at 28 days / Mortality/early euthanasia: s.c. Q3D, 4 weeks; for AUC(0-t): read-out: AUC0-t at NOAEL; for Mortality/early euthanasia: rats
Protocol: Male and female Sprague Dawley rats 9-10 weeks of age (Envigo RMS, Inc., Indianapolis, Ind. or Orient Bio Inc., Gyeonggi-do, South Korea) were individually housed at the testing facility. […] Animals were allocated to treatment groups based on body weight, and body weight and food consumption were recorded weekly. […] At necropsy, macroscopic pathologic findings were recorded, sperm motility and morphology were determined, selected organs were weighed, and selected tissues were collected for microscopic examination.

[9] = Pharmacokinetics after intravenous administration in rats; details: in vivo, Rat, IV Bolus, 3 mg/kg
Protocol: as §1

[10] = clinical trials in patients with obesity, PWS, or type 2 diabetes; cited from earlier work
[11] = Pharmacokinetics after subcutaneous administration in rabbits; format: in vivo, Rabbit
Excerpt: as §2

[12] = logD7.4 (physicochemical properties); details: pH 7.4
[13] = Pharmacokinetics after subcutaneous administration in rats; format: in vivo; details: plasma; Rat, SC, 6 mg/kg
Protocol: as §1, §2

[14] = Hepatocyte incubation, metabolic profile, human; format: in vitro ADME
[15] = Pharmacokinetics after subcutaneous administration in dogs; format: in vivo; details: beagle, plasma, Dog, SC, 0.6 mg/kg
Protocol: as §1, §2

[16] = Protein binding in rat plasma (dialysis); format: in vitro ADME; details: Rat Plasma, read-out: % Bound (Mean) (converted)
[17] = Hepatocyte incubation, metabolic profile, rat; format: in vitro ADME
[18] = Protein binding in human plasma (dialysis); format: in vitro ADME; details: Human Plasma, 120 nM; read-out: % Bound (Mean) (converted)
[19] = Hepatocyte incubation, metabolic profile, dog; format: in vitro ADME
[20] = female, 2 mg/kg, Day 1, female rats, NOAEL 2 mg/kg
[21] = female, 2 mg/kg, Day 31, female rats, NOAEL 2 mg/kg
[22] = male, 0.6 mg/kg, Day 1, male rats, NOAEL 0.6 mg/kg
[23] = male, 0.6 mg/kg, Day 31, male rats, NOAEL 0.6 mg/kg

CO[C@@H]1[C@H](OC(=O)/C=C/c2ccc(OCCN(C)C)cc2)CC[C@]2(CO2)[C@H]1[C@@]1(C)O[C@@H]1CC=C(C)C [beloranib, reference compound]
fraction unbound at 60 nM ([1]; 60 nM): 0.0181 | fraction unbound at 120 nM ([1]; 120 nM): 0.0191 | fraction unbound at 240 nM ([1]; 240 nM): 0.0259 | fraction unbound at 480 nM ([1]; 480 nM): 0.0222 | fraction unbound at 1000 nM ([1]; 1000 nM): 0.0212 | fraction unbound ([1]; All concentrations): 0.0213 | clearance [2]: 33.3 mL/min/kg | half-life [2]: 2.9 ± 0.29 h | Vd ([2]; read-out: Vdss): 5.07 ± 0.23 L/kg | half-life [3]: 9.3 h | solubility (Solubility (pH 7)): 300 µg/mL (≈ 600 µM) | kel [4]: 0.0885 ± 0.0266 h⁻¹ | AUC(0-inf) ([4]; plasma): 5.44 ± 1.81 ng·h/mL | half-life ([4]; plasma): 8.44 ± 2.49 h | Cmax ([4]; plasma, read-out: Cmax): 1 ± 1.1 ng/mL | Tmax ([4]; plasma, read-out: Tmax): 1.58 ± 1.28 h | pKa [5]: 9.4 | fraction unbound at 480 nM ([6]; 480 nM): 0.045 | fraction unbound at 1000 nM ([6]; 1000 nM): 0.059 | interval between doses with plasma concentrations at background / minimal exposure ([7]; dosing once every 3 days in animals and twice a week in humans): approximately 48 hours | plasma concentration at 24 hours after dosing ([7]; subcutaneous, rat, dog, and human): quantifiable | NOAEL at 28 days ([8]; female rats, read-out: NOAEL (F)): 2 mg/kg | NOAEL at 28 days ([8]; male rats, read-out: NOAEL): 0.6 mg/kg | Cmax [8, 20]: 28.5 ng/mL | AUC(0-t) [8, 20]: 96.9 ng·h/mL | Cmax [8, 21]: 19.2 ng/mL | AUC(0-t) [8, 21]: 56.7 ng·h/mL | Cmax [8, 22]: 19.2 ng/mL | AUC(0-t) [8, 22]: 36.8 ng·h/mL | Cmax [8, 23]: 8.17 ng/mL | AUC(0-t) [8, 23]: 29 ng·h/mL | Mortality/early euthanasia [8]: mortality was noted by Days 16-24 | Mortality/early euthanasia ([8]; listed as Beloranib): 4/15 males in the 6 mg/kg dose | clearance [9]: 113 mL/min/kg | half-life [9]: 1.05 ± 0.23 h | Vd ([9]; read-out: Vdss): 5.08 ± 0.29 L/kg | adverse events (AEs) [10]: venous thromboembolism | AUC(0-t) ([11]; plasma, Rabbit, SC, 1 mg/kg): 222 ± 9 ng·h/mL | Cmax ([11]; plasma, Rabbit, SC, 1 mg/kg): 52 ± 4.1 ng/mL | Tmax ([11]; plasma, Rabbit, SC, 1 mg/kg): 1.7 ± 0.6 h | half-life ([11]; plasma, Rabbit, SC, 1 mg/kg): 1.7 ± 0.3 h | plasma concentration at 8 hours after dosing ([11]; rabbit, subcutaneous): still quantifiable | logD7.4 [12]: 2.72 | AUC(0-t) [13]: 412 ng·h/mL | Cmax [13]: 270 ng/mL | Tmax [13]: 0.5 h | half-life [13]: 1.8 h | metabolic profile / predominant pathway in hepatocytes [14]: glutathione (GSH) conjugation pathways being predominant | AUC(0-t) [15]: 182 ± 73 ng·h/mL | Cmax [15]: 16.6 ± 12.3 ng/mL | Tmax [15]: 3.5 ± 1 h | half-life ([15]; N = 1): 7.84 h | fraction unbound at 60 nM ([16]; 60 nM): 0.0285 | fraction unbound at 120 nM ([16]; 120 nM): 0.055 | fraction unbound at 240 nM ([16]; 240 nM): 0.0415 | fraction unbound at 480 nM ([16]; 480 nM): 0.0326 | fraction unbound at 1000 nM ([16]; 1000 nM): 0.0434 | fraction unbound ([16]; All concentrations): 0.0402 | metabolic profile / predominant pathway in hepatocytes [17]: glutathione (GSH) conjugation pathways being predominant | fraction unbound at 120 nM [18]: 0.0544 | metabolic profile / predominant pathway in hepatocytes [19]: glutathione (GSH) conjugation pathways being predominant
